Assay results: PMC4685510, “A Cell Biologist’s Field Guide to Aurora Kinase Inhibitors” (Frontiers in Oncology, 2015)

Experiments:
Experiment in all cases: biochemical
Format in all cases: biochemical
[1] = target: 363 human kinases (including Aurora A/B/C) (Homo sapiens, UniProt P14616); details: IRR/INSRR; for remaining activity at 0.1 µM: 100 nM; for remaining activity at 0.1 µM / remaining activity at 0.5 µM: read-out: % Enzyme Activity (relative to DMSO controls)
Source text: (§1) However, the Aurora A/B selectivity ratios derived from our in vitro and in vivo data can be compared to prioritize inhibitors.

[2] = target: T1, 363 human kinases (including Aurora A/B/C) (Homo sapiens, UniProt Q8IVT5); details: KSR1; for remaining activity at 0.1 µM: 100 nM; for remaining activity at 0.1 µM / remaining activity at 0.5 µM: read-out: % Enzyme Activity (relative to DMSO controls)
T1 sequence (Q8IVT5 1-923): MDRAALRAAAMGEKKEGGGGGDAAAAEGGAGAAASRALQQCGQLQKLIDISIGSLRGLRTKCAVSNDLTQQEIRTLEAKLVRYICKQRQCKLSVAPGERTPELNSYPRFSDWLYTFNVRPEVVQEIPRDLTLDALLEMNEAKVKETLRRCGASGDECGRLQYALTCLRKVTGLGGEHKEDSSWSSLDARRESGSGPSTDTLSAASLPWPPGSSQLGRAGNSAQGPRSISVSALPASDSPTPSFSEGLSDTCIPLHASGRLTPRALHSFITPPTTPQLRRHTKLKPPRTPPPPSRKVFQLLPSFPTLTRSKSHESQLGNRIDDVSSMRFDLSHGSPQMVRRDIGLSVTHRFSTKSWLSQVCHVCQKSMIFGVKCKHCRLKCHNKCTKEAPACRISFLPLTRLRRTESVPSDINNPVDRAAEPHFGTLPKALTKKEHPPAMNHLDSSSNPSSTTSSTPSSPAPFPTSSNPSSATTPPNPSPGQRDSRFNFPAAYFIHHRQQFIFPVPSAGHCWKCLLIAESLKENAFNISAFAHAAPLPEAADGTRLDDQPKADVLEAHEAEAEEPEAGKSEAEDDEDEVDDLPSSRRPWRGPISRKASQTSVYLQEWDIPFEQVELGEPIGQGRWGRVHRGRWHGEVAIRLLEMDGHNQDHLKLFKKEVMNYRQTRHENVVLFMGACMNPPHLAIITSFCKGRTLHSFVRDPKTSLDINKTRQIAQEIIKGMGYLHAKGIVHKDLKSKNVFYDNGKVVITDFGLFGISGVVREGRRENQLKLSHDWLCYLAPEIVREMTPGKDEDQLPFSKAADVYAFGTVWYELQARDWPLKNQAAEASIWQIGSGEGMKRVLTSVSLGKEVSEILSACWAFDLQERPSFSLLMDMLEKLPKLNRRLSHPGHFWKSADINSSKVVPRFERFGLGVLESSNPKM
Source text: as §1

[3] = target: 363 human kinases (including Aurora A/B/C) (Homo sapiens, UniProt Q5VT25); details: MRCKa/CDC42BPA; for remaining activity at 0.1 µM: 100 nM; for remaining activity at 0.1 µM / remaining activity at 0.5 µM: read-out: % Enzyme Activity (relative to DMSO controls)
Chain of 363 human kinases (including Aurora A/B/C) (Homo sapiens, UniProt Q5VT25) (Q5VT25 whole entry): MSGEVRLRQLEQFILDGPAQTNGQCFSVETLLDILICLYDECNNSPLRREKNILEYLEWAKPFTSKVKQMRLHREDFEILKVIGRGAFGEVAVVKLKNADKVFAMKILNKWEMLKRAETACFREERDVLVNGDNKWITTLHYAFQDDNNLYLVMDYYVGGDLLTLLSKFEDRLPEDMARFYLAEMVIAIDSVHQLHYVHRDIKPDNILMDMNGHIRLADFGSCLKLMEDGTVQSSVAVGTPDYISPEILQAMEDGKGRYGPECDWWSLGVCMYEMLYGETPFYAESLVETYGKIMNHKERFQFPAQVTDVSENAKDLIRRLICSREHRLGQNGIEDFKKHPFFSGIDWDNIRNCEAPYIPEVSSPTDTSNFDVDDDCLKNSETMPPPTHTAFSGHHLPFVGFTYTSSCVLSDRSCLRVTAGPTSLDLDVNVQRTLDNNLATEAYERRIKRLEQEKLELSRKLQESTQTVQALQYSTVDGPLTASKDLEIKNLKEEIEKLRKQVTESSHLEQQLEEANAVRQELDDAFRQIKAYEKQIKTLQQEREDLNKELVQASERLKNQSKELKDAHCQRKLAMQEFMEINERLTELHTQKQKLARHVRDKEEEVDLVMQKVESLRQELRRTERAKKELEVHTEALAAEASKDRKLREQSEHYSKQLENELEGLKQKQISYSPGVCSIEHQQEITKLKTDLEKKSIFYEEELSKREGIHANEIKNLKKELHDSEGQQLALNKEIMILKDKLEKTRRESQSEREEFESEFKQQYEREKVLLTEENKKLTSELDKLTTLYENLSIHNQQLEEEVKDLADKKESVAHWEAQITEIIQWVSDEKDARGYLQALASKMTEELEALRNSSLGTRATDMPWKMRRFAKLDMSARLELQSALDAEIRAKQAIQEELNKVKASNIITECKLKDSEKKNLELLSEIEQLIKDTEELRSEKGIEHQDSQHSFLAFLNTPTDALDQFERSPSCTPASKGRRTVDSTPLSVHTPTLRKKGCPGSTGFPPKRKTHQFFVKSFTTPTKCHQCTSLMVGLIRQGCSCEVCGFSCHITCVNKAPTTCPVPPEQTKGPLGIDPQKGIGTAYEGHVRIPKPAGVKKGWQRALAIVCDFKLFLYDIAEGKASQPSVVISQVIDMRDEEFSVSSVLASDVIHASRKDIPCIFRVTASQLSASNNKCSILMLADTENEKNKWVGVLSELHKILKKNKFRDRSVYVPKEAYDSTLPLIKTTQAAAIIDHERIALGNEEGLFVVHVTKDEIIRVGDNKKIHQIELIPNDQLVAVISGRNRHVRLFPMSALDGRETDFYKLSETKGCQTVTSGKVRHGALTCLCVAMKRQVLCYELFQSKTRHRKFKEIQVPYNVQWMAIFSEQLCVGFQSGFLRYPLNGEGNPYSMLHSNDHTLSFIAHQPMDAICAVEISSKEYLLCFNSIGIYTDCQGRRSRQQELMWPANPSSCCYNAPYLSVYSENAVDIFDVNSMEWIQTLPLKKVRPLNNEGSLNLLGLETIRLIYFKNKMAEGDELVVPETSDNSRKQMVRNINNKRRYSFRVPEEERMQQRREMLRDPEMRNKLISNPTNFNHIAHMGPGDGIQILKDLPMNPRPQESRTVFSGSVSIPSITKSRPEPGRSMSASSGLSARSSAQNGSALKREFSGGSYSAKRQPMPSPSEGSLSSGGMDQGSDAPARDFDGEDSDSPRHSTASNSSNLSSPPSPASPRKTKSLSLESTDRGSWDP
Source text: as §1

[4] = target: 363 human kinases (including Aurora A/B/C) (Homo sapiens, UniProt Q04912); details: RON/MST1R; for remaining activity at 0.1 µM: 100 nM; for remaining activity at 0.1 µM / remaining activity at 0.5 µM: read-out: % Enzyme Activity (relative to DMSO controls)
Chain of 363 human kinases (including Aurora A/B/C) (Homo sapiens, UniProt Q04912) (Q04912 25-1400): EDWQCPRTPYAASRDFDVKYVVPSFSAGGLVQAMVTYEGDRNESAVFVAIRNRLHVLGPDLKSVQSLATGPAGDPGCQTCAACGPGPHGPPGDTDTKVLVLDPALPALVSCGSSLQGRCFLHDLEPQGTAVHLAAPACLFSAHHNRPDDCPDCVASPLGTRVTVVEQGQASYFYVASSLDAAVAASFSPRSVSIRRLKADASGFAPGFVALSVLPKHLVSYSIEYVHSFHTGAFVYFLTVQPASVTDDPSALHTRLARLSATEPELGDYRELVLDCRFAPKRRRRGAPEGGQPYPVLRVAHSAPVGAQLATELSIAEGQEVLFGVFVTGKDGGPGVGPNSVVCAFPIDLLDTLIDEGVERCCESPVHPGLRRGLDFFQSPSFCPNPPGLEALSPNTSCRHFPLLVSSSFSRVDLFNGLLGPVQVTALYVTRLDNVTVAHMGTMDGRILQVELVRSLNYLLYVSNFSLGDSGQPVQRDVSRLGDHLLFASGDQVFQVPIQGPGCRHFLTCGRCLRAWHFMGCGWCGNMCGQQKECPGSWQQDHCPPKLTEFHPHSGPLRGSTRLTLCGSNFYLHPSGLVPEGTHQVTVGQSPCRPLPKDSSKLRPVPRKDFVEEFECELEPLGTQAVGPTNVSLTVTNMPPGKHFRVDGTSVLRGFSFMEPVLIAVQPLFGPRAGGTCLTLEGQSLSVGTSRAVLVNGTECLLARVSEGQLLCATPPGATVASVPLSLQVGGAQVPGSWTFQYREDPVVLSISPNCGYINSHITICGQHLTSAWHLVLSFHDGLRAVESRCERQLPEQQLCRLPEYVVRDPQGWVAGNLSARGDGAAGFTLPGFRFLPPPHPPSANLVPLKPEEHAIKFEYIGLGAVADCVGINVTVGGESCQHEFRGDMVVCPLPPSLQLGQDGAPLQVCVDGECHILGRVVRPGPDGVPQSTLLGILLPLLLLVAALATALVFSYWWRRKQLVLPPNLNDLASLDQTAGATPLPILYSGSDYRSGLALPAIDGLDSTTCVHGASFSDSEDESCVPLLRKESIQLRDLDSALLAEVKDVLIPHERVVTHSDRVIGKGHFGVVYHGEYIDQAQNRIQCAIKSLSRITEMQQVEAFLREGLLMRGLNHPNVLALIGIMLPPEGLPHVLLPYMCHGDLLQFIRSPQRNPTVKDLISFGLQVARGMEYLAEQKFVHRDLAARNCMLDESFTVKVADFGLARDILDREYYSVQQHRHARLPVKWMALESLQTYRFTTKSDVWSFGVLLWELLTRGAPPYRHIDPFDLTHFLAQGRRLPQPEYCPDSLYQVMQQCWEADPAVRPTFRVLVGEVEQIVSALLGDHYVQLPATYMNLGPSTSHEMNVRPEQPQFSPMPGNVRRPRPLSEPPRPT
Source text: as §1

[5] = target: T2, 363 human kinases (including Aurora A/B/C) (Homo sapiens, UniProt Q08881); details: ITK; for remaining activity at 0.1 µM: 100 nM; for remaining activity at 0.1 µM / remaining activity at 0.5 µM: read-out: % Enzyme Activity (relative to DMSO controls)
T2 sequence (Q08881 1-620): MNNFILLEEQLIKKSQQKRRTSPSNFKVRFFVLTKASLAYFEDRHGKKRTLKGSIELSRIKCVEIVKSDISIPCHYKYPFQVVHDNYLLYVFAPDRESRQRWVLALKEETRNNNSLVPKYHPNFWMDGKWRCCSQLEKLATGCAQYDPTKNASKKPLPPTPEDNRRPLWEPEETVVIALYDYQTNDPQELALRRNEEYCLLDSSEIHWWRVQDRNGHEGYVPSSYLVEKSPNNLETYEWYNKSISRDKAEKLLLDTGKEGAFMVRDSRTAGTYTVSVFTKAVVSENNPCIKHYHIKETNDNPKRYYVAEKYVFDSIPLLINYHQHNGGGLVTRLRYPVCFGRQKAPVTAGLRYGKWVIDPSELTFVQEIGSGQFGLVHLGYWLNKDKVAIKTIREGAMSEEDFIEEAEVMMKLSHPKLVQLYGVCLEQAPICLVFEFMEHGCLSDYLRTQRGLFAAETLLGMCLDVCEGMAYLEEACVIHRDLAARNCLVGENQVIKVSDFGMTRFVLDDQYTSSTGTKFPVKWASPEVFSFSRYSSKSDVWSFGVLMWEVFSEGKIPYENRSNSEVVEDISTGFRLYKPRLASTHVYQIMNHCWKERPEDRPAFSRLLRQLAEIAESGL
Source text: as §1

Chain of 363 human kinases (including Aurora A/B/C) (Homo sapiens, UniProt P14616) (P14616 27-1297): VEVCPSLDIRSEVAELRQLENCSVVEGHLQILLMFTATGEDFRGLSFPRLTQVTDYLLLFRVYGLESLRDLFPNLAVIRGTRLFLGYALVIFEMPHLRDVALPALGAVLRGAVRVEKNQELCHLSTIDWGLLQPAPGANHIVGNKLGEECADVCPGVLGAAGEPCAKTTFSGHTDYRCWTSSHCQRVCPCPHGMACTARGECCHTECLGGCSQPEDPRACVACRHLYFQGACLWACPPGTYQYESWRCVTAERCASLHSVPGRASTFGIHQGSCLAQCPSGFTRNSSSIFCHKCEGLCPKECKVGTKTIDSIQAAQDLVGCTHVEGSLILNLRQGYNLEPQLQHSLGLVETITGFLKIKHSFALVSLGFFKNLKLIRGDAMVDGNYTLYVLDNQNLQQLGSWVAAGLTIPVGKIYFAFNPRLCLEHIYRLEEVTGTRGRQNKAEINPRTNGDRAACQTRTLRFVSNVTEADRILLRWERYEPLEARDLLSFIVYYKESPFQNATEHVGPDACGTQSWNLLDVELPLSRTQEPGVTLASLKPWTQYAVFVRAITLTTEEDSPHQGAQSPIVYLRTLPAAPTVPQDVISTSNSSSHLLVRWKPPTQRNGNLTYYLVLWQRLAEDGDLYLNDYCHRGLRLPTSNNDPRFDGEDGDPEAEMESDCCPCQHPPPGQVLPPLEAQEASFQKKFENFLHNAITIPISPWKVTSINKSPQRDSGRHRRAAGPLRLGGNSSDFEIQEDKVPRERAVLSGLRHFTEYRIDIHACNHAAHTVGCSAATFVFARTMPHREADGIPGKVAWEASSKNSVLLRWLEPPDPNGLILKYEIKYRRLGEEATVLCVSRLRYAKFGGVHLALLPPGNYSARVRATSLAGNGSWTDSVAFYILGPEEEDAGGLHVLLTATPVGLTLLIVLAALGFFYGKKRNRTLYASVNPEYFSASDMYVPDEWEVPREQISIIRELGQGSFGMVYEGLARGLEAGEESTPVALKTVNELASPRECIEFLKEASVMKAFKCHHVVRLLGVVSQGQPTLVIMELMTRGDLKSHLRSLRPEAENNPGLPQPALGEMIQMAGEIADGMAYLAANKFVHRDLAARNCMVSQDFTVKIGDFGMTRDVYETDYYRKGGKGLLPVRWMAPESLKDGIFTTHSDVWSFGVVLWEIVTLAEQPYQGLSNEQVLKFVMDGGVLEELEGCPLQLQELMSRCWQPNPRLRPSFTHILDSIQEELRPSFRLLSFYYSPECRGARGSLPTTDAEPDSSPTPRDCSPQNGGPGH

Row | Compound | remaining activity at 0.1 µM [1] [%] | remaining activity at 0.1 µM [2] [%] | remaining activity at 0.1 µM [3] [%] | remaining activity at 0.1 µM [4] [%] | remaining activity at 0.1 µM [5] [%] | remaining activity at 0.5 µM ([1]; 500 nM) [%] | remaining activity at 0.5 µM ([2]; 500 nM) [%] | remaining activity at 0.5 µM ([3]; 500 nM) [%] | remaining activity at 0.5 µM ([4]; 500 nM) [%] | remaining activity at 0.5 µM ([5]; 500 nM) [%] | % Enzyme Activity (relative to DMSO controls) ([1]; 500 nM) [%] | % Enzyme Activity (relative to DMSO controls) ([2]; 500 nM) [%] | % Enzyme Activity (relative to DMSO controls) ([3]; 500 nM) [%] | % Enzyme Activity (relative to DMSO controls) ([4]; 500 nM) [%] | % Enzyme Activity (relative to DMSO controls) ([5]; 500 nM) [%]
1 | CCn1cc(-c2ccnc3[nH]c(-c4cccc(CN(C)C)c4)cc23)c(-c2ccc(NC(=O)N(C)C)cc2)n1 [GSK1070916] | 99.5 | 94.2 | 108 | 93.8 | 77.7 | – | – | – | – | – | – | – | – | – | –
2 | O=C(O)[C@]1(Cc2cccc(Nc3nccs3)n2)CC[C@@H](Oc2cccc(Cl)c2F)CC1 [MK-5108] | 81.7 | 98.6 | 93.7 | 101 | 89 | 46.3 | 98 | 103 | 94.1 | 46.3 | – | – | – | – | –
3 | O=C(c1cccc(Cl)c1F)N1CCN(Cc2cccc(Nc3nccs3)n2)CC1 [MK-8745] | – | – | – | – | – | 76.4 | 93.4 | 104 | 96.3 | 104 | 75.20 | 92.75 | 103.58 | 94.45 | 102.90
